Reference: publication PMC7640639 (Journal of medicinal chemistry, 2019)
Where two headings read alike, the source gives them in different places.

Columns and labels:
HT-22 cells = test: Neuroprotection against glutamate-induced oxidative stress in HT-22 cells; format: cell-based, mouse
liver = conditions: mouse, in vivo, ip, 3 mg/kg
hCB2R [1] = target: T1, hCB2R (Homo sapiens, UniProt P34972); conditions: calcium mobilization
Aβ42 = Aβ42 (Homo sapiens, UniProt P05067); test: Inhibition of Aβ42 self-aggregation, thioflavin T fluorescence assay; format: biochemical; conditions: 50 μM inhibitor, 50 μM Aβ42 (1:1)
[2] = target: hAChE-induced Aβ40 aggregation (Homo sapiens, UniProt P22303); format: biochemical; conditions: [I] = 100 μM; Aβ40/hAChE 100:1
[3] = tested on: U266 myeloma cells (cAMP-regulated MIF and STAT-3 genes, hCB2R)
hCB1R = hCB1R (Homo sapiens, UniProt P21554); conditions: CHO-K1 cells, hCB1 and Gαq16
hAChE = hAChE (Homo sapiens, UniProt P22303); format: biochemical
[4] = tested on: Aβ25–35-induced learning impairments in mice; conditions: mouse, in vivo, ip
[5] = tested on: murine microglial cell line N9
μ-opioid receptor (MOR) = μ-opioid receptor (MOR) (Homo sapiens, UniProt P35372)
hCB2R [6] = target: T1, hCB2R
[7] = HT-22 cells, 5 mM glutamate, 24 h, MTT

Sequence of Aβ42 (P05067 672-713): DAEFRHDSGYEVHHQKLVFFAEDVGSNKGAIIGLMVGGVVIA
T1 sequence (P34972 whole entry): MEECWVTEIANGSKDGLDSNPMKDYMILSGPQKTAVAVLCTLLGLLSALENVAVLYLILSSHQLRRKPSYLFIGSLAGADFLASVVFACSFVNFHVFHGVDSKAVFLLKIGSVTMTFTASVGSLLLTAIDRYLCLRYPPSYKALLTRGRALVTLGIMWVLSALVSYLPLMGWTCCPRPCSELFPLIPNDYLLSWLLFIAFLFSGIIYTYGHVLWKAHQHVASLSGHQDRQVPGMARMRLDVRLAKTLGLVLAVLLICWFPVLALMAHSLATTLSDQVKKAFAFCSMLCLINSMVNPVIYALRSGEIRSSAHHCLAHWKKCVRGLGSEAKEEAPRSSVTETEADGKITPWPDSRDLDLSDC
Sequence of hCB1R (P21554 whole entry): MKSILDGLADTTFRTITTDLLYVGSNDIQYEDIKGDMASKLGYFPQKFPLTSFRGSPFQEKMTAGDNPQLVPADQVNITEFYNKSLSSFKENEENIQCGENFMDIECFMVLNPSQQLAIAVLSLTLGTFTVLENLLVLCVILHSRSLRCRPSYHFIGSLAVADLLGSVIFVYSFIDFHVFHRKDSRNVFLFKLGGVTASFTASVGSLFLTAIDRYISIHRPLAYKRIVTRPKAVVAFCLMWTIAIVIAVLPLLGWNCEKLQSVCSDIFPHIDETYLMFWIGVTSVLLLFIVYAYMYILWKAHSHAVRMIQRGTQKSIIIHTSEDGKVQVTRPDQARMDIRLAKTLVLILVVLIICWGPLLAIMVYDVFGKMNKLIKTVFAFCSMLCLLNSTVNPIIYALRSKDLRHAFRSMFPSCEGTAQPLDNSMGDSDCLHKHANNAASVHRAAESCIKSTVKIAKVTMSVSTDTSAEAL
Sequence of μ-opioid receptor (MOR) (P35372 whole entry): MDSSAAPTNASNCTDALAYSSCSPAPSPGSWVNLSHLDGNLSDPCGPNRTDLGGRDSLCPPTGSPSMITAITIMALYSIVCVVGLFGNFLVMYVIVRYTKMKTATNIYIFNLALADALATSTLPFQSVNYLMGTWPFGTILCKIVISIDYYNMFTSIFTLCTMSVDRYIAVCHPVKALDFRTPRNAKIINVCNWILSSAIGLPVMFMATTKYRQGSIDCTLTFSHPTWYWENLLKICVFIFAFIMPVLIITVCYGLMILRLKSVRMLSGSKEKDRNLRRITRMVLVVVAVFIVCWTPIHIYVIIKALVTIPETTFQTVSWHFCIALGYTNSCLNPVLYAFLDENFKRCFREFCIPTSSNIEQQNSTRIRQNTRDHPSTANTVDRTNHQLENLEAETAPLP
Sequence of hAChE-induced Aβ40 aggregation (P22303 32-614): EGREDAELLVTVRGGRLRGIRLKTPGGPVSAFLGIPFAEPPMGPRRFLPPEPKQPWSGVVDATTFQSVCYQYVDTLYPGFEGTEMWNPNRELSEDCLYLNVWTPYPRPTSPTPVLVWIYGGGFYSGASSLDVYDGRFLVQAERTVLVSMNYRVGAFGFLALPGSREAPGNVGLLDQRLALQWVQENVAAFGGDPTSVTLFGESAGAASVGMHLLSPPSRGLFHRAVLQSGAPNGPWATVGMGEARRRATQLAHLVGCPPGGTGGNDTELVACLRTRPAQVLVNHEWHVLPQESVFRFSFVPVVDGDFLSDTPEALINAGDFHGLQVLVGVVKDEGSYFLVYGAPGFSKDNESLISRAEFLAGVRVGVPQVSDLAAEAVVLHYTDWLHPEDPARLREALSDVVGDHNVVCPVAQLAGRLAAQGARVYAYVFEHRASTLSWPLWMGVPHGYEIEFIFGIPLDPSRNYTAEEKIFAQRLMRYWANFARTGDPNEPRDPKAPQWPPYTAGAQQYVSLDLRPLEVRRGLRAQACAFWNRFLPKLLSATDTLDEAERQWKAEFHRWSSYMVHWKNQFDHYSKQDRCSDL
Sequence of hAChE (P22303 32-614): as above

Compound: CCOc1ccc(Cc2nc3cc(C(=O)N(CC)CC)ccc3n2CCCCCNc2c3c(nc4ccccc24)CCCC3)cc1 [3d, 2-(4-Ethoxybenzyl)-N,N-diethyl-1-(5-((1,2,3,4-tetrahydroacridin-9-yl)amino)pentyl)-1H-benzo[d]imidazole-5-carboxamide]
- neuroprotective behavior (in words) (HT-22 cells): none
- necrosis positive/specimen (liver): 5/6
- necrosis reported area % (liver): 5–15%

Compound: CCOc1ccc(Cc2nc3cc(C(=O)N(CC)CC)ccc3n2CCCCCCNc2c3c(nc4ccccc24)CCCC3)cc1 [3e, 2-(4-Ethoxybenzyl)-N,N-diethyl-1-(6-((1,2,3,4-tetrahydroacndin-9-yl)amino)hexyl)-1H-benzo[d]imidazole-5-carboxamide]
- behaviour at hCB2R (in words) (hCB2R [1]): partial agonists
- inhibition of Aβ42 self-aggregation (in words) (Aβ42): strongly inhibited
- inhibition of hAChE-induced Aβ40 aggregation (in words) [2]: significantly reduce the proaggregating action of hAChE
- MIF and STAT-3 gene expression compared to vehicle [3]: decreased expression of both genes
- activity at hCB1R (in words) (hCB1R): devoid of activity
- neuroprotective behavior (in words) (HT-22 cells; [7]): low neuroprotective behavior
- Ki′ (inhibition constant for the enzyme-substrate-inhibitor complex), in words (hAChE): submicromolar range
- most effective dose, complete prevention of Aβ25–35 impairments in both tests [4]: 0.3 mg/kg

Compound: CCOc1ccc(Cc2nc3cc(C(=O)NCCNc4c5c(nc6ccccc46)CCCC5)ccc3n2CCC(C)C)cc1 [4a, 2-(4-Ethoxybenzyl)-1-isopentyl-N-(2-((1,2,3,4-tetrahydroacridin-9-yl)amino)ethyl)-1H-benzo[d]imidazole-5-carboxamide]
- IL1β release and iNOS expression (M1 markers) [5]: significantly decrease
- NO release / nitrite accumulation [5]: reduced
- TREM2 and TGFβ2 expression (M2 markers) [5]: not reduced
- affinity at the μ-opioid receptor (in words) (μ-opioid receptor (MOR)): significant affinity
- necrosis positive/specimen (liver): 6/9
- necrosis reported area % (liver): 5–10%
- most effective dose, complete prevention of Aβ25–35 impairments in both tests [4]: 1 mg/kg

Compound: CCOc1ccc(Cc2nc3cc(C(=O)NCCCNc4c5c(nc6ccccc46)CCCC5)ccc3n2CCC(C)C)cc1 [4b, 2-(4-Ethoxybenzyl)-1-isopentyl-N-(3-((1,2,3,4-tetrahydroacridin-9-yl)amino)propyl)-1H-benzo[d]imidazole-5-carboxamide]
- inhibition of Aβ42 self-aggregation (in words) (Aβ42): quite weak

Compound: CCOc1ccc(Cc2nc3cc(C(=O)NCCCCNc4c5c(nc6ccccc46)CCCC5)ccc3n2CCC(C)C)cc1 [4c, 2-(4-Ethoxybenzyl)-1-isopentyl-N-(4-((1,2,3,4-tetrahydroacridin-9-yl)amino)butyl)-1H-benzo[d]imidazole-5-carboxamide]
- behaviour at hCB2R (in words) (hCB2R [1]): partial agonists
- MIF and STAT-3 gene expression compared to vehicle [3]: decreased expression of both genes
- activity at hCB1R (in words) (hCB1R): devoid of activity

Compound: CCOc1ccc(Cc2nc3cc(C(=O)NCCCCCCNc4c5c(nc6ccccc46)CCCC5)ccc3n2CCC(C)C)cc1 [4e, 2-(4-Ethoxybenzyl)-1-isopentyl-N-(6-((1,2,3,4-tetrahydroacridin-9-yl)amino)hexyl)-1H-benzo[d]imidazole-5-carboxamide]
- affinity at the μ-opioid receptor (in words) (μ-opioid receptor (MOR)): significant affinity

Compound: Cc1c(C(=O)NN2CCCCC2)nn(-c2ccc(Cl)cc2Cl)c1-c1ccc(Cl)cc1 [Rimonabant]
- [3H]CP 55,940 displ. @10 μM hCB2R (hCB2R [6]): 4%

Compound: CCOc1ccc(Cc2nc3cc(C(=O)NCCSSCCNc4c5c(nc6ccccc46)CCCC5)ccc3n2CCC(C)C)cc1 [compound 8, 2-(4-Ethoxybenzyl)-1-isopentyl-N-(2-((2-((1,2,3,4-tetrahydroacri-din-9-yl)amino)ethyl)disulfaneyl)ethyl)-1H-benzo[d]imidazole-5-carboxamide]
- inhibition of Aβ42 self-aggregation (in words) (Aβ42): strongly inhibited
- inhibition of hAChE-induced Aβ40 aggregation (in words) [2]: not able to significantly inhibit
- neuroprotection at 5 μM (in words) (HT-22 cells; HT-22 cells, 5 mM glutamate, 5 μM compound): neuroprotection comparable to the positive control quercetin at 25 μM
- concentration showing neuroprotection (HT-22 cells; [7]): ≥ 1 µM
- necrosis positive/specimen (liver): 8/11
- necrosis reported area % (liver): 5–50%
- most effective dose, complete prevention of Aβ25–35 impairments in both tests [4]: 0.3 mg/kg
